Measurements taken from patent US8242159B2, “1,3-dihydro-5-isobenzofurancarbonitrile derivatives and pharmaceutical composition thereof for the treatment of premature ejaculation” (Dong-A Pharmaceutical. Co., Ltd, priority 2007, dated 2012).

Experiments:
Sprague-Dawley (SD) rats = experiment: Acute toxicity test, single dose, mortality; assay type: in vivo, rat; parameters: unit not given here
From the text: The present derivatives and citalopram were individually administered orally and intra-venously to SD rats at a single dose.

[1] = Determination of half-lives of the compounds in rats (oral, plasma HPLC); assay type: in vivo; conditions: rat, male Sprague-Dawley rats, 10 mg/kg (text also says 5 mg/kg), 0.5% methylcellulose
Procedure: The half-lives of present compounds were determined as follows. Each compound was administered orally to male Sprague-Dawley rats weighing approximately 270 g at a dose of 10 mg/kg. 5 mg/kg of each compound was suspended in 0.5% methyl-cellulose and then administered to rats. Blood samples were collected 0.017, 0.083, 0.25, 0.5, 1, 2, 3, 5, 7 and 24 hours after administration, and centrifuged at 1,000 rpm for 3 min to separate plasma. The concentration of each compound in plasma was determined using high performance liquid chromatography, which was performed with a mobile phase of 10 mM ammonium formate (pH 3.0) and acetonitrile (50:50), an […] column (21×100 mm, 3 μm) and a flow rate of 0.2 ml/min.

[2] = system: Salmonella typhimurium TA98, 100, 1535, 1537, E. coli WP2 uvrA; conditions: reported 'in the same test'; which test is not specified; cited from earlier work
5-HT1B receptor = target: T1, 5-HT1B receptor (Rattus norvegicus, UniProt P28564); experiment: Radioligand competitive binding assay, [125I]Cyanopindolol; conditions: Wistar rat-derived cerebral cortical cells
T1 construct: Wistar rat-derived cerebral cortical cells; from tissue; host or cells: Wistar rat cerebral cortex
Procedure: (§1) In addition, ligand binding to 5HT1A, 5-HT1B and 5-HT2C receptors and 5-HT transporter was evaluated with human-derived recombinant CHO cells, Wistar rat-derived cerebral cortical cells, human-derived recombinant CHO-K1 cells, and human-derived recombinant HEK-293 cells. Each cell line was dosed with 10^−5 μM to 10^4 μM of the compounds of Examples 2, 35, 40 and 45, and then incubated with a radio-labeled ligand for competitive binding. Ligands used were […], [^125I]Cyanopindolol, [^3H]Mesulergine and [^3H]Paroxetine, respectively. The competitive binding assay was carried out in 50 mM Tris-HCl buffer at 25° C. or 37° C., for 60 to 90 min.

5-HT transporter = target: T2, 5-HT transporter (Homo sapiens, UniProt P31645); experiment: Radioligand competitive binding assay, [3H]Paroxetine; conditions: human-derived recombinant HEK-293 cells
T2 construct: expressed in transfected cells; host or cells: HEK-293 cells
Procedure: as §1

[3] = system: cellular uptake of norepinephrine; experiment: Cellular reuptake assay, [3H]norepinephrine; assay type: cell-based; conditions: 10 min, MDCK cell line
Procedure: (§2) First, the effects of the present compounds on cellular uptake of dopamine, norepinephrine and serotonin were evaluated with human-derived CHO-1, MDCK and HEK-293 cell lines. Each cell line was dosed with 10^−5 μM to 10^4 μM of the compounds of Examples 2, 35, 40 and 45, and then incubated with [^3H]dopamine, [^3H]norepinephrine and [^3H]serotonin in buffer. After 10 min, the amount of each neurotransmitter taken up into cells was determined by counting radioactivity using a liquid scintillation counter (LSC).

[4] = system: Salmonella typhimurium TA98, 100, 1535, 1537, E. coli WP2 uvrA; experiment: Mutagenicity test: Ames test; assay type: cell-based; conditions: 8, 40, 200, 1000, 2500, 5000 μg/plate, presence/absence of a metabolic activation system
Procedure: (§3) To evaluate the safety of the present derivatives, mutagenicity test was conducted. Ames test and chromosome aberration test were conducted with the examples 2, 35, 40 and 45.

5HT1A receptor = target: T3, 5HT1A receptor (Homo sapiens, UniProt P08908); experiment: Radioligand competitive binding assay; conditions: human-derived recombinant CHO cells
T3 construct: expressed in transfected cells; host or cells: CHO cells
T3 sequence (P08908 1-422): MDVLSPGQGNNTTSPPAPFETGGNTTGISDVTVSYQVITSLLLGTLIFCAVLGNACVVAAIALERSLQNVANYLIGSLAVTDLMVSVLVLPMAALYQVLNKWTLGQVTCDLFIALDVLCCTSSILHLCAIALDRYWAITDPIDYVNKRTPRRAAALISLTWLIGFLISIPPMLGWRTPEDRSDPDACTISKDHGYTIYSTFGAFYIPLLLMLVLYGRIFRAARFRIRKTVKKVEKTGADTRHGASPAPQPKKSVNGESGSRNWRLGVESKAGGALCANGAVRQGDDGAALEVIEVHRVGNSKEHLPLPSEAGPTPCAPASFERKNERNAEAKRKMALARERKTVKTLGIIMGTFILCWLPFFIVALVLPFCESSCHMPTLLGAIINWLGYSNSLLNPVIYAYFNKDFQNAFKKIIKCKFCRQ
Procedure: as §1

[5] = target: hERG (human Ether-a-go-go Related Gene) (Homo sapiens, UniProt Q12809); experiment: Cardiotoxicity test, hERG assay (MDS Pharma)
From the text: To evaluate the safety of the present derivatives in comparison with control drug, conducted was hERG (human Ether-a-go-go Related Gene) assay which is a representative test of safety medical test. This test was requested to trial institute MDS Pharma., which conducted this test.

5-HT2C receptor = target: T4, 5-HT2C receptor (Homo sapiens, UniProt P28335); experiment: Radioligand competitive binding assay, [3H]Mesulergine; conditions: human-derived recombinant CHO-K1 cells
T4 construct: expressed in transfected cells; host or cells: CHO-K1 cells
T4 sequence (P28335 33-458): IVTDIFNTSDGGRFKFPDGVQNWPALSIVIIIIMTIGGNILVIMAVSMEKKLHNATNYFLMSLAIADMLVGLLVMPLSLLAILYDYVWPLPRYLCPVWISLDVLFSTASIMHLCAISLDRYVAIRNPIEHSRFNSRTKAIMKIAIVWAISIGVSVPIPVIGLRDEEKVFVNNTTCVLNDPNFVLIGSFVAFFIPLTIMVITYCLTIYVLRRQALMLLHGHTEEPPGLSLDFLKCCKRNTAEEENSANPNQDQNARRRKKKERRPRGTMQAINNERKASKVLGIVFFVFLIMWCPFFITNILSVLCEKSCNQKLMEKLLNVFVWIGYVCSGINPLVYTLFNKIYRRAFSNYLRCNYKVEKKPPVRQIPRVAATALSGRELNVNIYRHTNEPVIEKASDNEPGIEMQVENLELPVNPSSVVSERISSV
Procedure: as §1

[6] = system: cellular uptake of serotonin; experiment: Cellular reuptake assay, [3H]serotonin; assay type: cell-based; conditions: Homo sapiens, HEK293, 10 min, HEK-293 cell line
Procedure: as §2

Male Wistar rats = experiment: p-PCA-induced ejaculation in anesthetized rats (ejaculation-delaying effect); assay type: in vivo, rat; conditions: for Ratio: Number of responding animals/total animal number: 50 mg/kg oral in 1% HPMC, p-PCA 5 mg/kg i.p. 80 min later, observed 30 min; for Latency: Time to display the ejaculatory response: 50 mg/kg oral, p-PCA 5 mg/kg i.p., mean ± standard deviation of responding rats
Outline: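 Male Wistar rats (240-260 g) received compound orally at 50 mg/kg in 1% HPMC, were anesthetized 60 min later, and 20 min after that were given p-PCA 5 mg/kg i.p. to induce ejaculation. Scored as rhythmic bulbocavernosus contraction plus semen discharge, with six or more animals per compound versus vehicle.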

[7] = system: cellular uptake of dopamine; experiment: Cellular reuptake assay, [3H]dopamine; assay type: cell-based; conditions: 10 min, CHO-1 cell line
Procedure: as §2

[8] = system: CHL (Chinese Hamster Lung) cell; experiment: Mutagenicity test: chromosome aberration test; assay type: cell-based; conditions: 75, 150, 300 μg/ml with metabolic activation; 20, 40, 80 μg/ml without
Procedure: as §3

T2 sequence (P31645 whole entry): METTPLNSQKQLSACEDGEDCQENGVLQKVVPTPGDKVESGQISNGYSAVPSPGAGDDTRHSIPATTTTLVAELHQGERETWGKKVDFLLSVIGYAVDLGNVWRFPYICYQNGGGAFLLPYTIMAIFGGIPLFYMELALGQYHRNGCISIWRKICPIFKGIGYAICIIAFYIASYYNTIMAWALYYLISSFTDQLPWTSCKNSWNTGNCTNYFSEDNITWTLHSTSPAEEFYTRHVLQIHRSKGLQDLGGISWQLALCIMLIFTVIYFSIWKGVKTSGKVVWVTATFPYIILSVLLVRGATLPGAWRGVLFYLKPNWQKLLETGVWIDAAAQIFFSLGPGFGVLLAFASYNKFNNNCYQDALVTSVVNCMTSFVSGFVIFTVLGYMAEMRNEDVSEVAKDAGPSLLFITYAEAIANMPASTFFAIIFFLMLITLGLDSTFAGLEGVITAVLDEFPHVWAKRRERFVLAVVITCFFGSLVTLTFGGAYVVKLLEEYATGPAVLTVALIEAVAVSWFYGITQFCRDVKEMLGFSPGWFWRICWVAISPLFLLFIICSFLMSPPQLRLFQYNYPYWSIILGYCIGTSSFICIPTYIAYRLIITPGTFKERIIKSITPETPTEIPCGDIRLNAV
Chain of hERG (human Ether-a-go-go Related Gene) (Q12809 whole entry): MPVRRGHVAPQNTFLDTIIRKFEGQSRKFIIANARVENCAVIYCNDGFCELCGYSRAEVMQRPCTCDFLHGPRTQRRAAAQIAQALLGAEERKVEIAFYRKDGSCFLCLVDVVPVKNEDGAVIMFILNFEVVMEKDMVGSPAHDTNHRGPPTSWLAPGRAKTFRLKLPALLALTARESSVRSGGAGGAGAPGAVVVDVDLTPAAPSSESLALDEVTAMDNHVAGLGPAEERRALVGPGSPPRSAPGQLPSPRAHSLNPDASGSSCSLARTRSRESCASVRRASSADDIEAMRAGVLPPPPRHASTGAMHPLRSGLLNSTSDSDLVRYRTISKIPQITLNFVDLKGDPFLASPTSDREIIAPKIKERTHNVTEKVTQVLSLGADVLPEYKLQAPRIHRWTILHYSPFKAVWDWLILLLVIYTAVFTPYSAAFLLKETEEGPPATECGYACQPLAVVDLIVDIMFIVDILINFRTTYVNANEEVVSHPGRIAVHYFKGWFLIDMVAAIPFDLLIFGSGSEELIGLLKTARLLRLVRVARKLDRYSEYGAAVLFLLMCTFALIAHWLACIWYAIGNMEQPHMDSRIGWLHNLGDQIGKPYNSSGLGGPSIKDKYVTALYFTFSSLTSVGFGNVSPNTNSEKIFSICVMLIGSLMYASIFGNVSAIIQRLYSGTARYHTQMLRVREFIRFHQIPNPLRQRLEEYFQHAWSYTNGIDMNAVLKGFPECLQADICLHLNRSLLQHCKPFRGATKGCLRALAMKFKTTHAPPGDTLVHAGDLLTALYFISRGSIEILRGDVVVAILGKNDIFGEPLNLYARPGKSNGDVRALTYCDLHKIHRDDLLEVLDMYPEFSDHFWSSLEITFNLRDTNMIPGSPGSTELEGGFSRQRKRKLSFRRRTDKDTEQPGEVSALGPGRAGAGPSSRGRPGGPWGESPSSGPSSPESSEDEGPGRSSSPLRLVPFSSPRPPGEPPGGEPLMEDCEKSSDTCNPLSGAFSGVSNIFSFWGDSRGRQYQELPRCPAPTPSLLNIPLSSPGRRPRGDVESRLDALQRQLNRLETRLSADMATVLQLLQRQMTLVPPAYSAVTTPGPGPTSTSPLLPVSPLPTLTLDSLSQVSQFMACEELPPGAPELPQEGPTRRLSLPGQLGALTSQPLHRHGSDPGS
T1 sequence (P28564 whole entry): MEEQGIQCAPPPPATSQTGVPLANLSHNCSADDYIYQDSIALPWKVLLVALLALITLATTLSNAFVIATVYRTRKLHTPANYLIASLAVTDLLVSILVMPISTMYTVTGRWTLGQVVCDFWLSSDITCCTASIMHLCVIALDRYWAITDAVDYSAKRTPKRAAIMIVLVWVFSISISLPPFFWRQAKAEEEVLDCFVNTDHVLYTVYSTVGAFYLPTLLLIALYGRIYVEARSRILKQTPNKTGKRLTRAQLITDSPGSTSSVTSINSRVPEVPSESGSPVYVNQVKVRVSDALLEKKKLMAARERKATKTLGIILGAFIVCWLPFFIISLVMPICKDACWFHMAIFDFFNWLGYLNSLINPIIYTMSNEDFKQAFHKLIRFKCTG

| Compound | minimum lethal dose (Sprague-Dawley (SD) rats; Intravenously, female SD rats) | minimum lethal dose (Sprague-Dawley (SD) rats; Intravenously, male SD rats) | minimum lethal dose (Sprague-Dawley (SD) rats; Orally, female SD rats) | minimum lethal dose (Sprague-Dawley (SD) rats; Orally, male SD rats) | Tmax [1] [min] | half-life [1] [min] | mutagenicity test result as reported [2] | IC50 (5-HT1B receptor) [µM] | IC50 (5-HT transporter) [µM] | IC50 [3] [µM] | Ames test result [4] | IC50 (5HT1A receptor) [µM] | IC50 [5] [µM] | IC50 (5-HT2C receptor) [µM] | IC50 [6] [µM] | Ratio: Number of responding animals/total animal number (Male Wistar rats) | IC50 [7] [µM] | chromosome aberration test result [8] | Latency: Time to display the ejaculatory response (Male Wistar rats) [s] |
| --- | --- | --- | --- | --- | --- | --- | --- | --- | --- | --- | --- | --- | --- | --- | --- | --- | --- | --- | --- |
| CN(C)CCCC1(c2ccc(F)cc2)OCc2cc(C#N)ccc21 (stereo not drawn) [Citalopram, reference compound] | 30 | 30 | 650 | 650 | 19.8 | 194 | positive |  |  |  |  |  |  |  |  |  |  |  |  |
| CN(C)CCCC1(c2ccc(N(C)C)cc2)OCc2cc(C#N)ccc21.O=C(O)C(=O)O (stereo not drawn) [Ex. 35, 1-(4-dimethylaminophenyl)-1-{3-(dimethylamino)propyl}-1,3-dihydro-5-isobenzofurancarbonitrile oxalate] | 50 | 50 | 1000 | 1000 | 15 | 211 |  | > 1000 | 0.001 | 53.2 | negative | 1120 | 12.2 | 898 | 0.425 | 0/9 | 100 | negative |  |
| CN(C)CCCC1(c2cccs2)OCc2cc(C#N)ccc21.O=C(O)C(=O)O (stereo not drawn) [Ex. 40, 1-{3-(dimethylamino)propyl}-1-(2-thienyl)-1,3-dihydro-5-isobenzofurancarbonitrile oxalate] | 50 | 50 | 800 | 800 | 15 | 75.6 |  | > 1000 | 0.0125 | 69.1 | negative | 967 | 8.7 | 10.1 | 0.531 | 3/9 | 124 | negative | 876 ± 110 |
| N#Cc1ccc2c(c1)COC2(CCCn1ccnc1)c1cccs1.O=C(O)C(=O)O (stereo not drawn) [Ex. 45, 1-{3-(imidazole-1-yl)propyl}-1-(2-thienyl)-1,3-dihydro-5-isobenzofurancarbonitrile oxalate] | 50 | 50 | 1000 | 1000 | 15 | 63.6 |  | > 1000 | 0.0087 | 67.3 | negative | 898 | 10.6 | 8.88 | 0.465 | 2/9 | 94.2 | negative | 676 ± 10 |
